According to patent publication US9949945B2, “3′ equatorial-fluorine-substituted neuraminidase inhibitor compounds, compositions and methods for the use thereof as anti-virals” (THE UNIVERSITY OF BRITISH COLUMBIA, priority 2012, dated 2018):
Like-named read-outs stand apart in the source and are kept apart here.

How the values were obtained:
[1] = biological target: California H1N1 (A/California/07/09) neuraminidase (Influenza A virus, UniProt C3W6G3)
B/Perth (B/Perth/211/01) = assay: microbe, parasite or virus in culture; assay type: cell-based; conditions: read-out: IC50 in the plaque size reduction assay, B/Perth
[2] = biological target: B/Perth wt (B/Perth/211/01) NA (Influenza B virus, UniProt Q3S340); assay type: biochemical
A/Fukui H3N2 = assay: microbe, parasite or virus in culture; assay type: cell-based; conditions: read-out: IC50 in the plaque size reduction assay, A/Fukui H3N2
[3] = biological target: Brisbane H1N1 (A/Brisbane/59/07) neuraminidase (Influenza A virus, UniProt D5F1R0)
[4] = test system: A/Mississippi H1N1 (A/Mississippi/3/01); assay: microbe, parasite or virus in culture; assay type: cell-based; conditions: read-out: IC50 in the plaque size reduction assay, A/Mississippi H1N1
Human Neu2 = Human Neu2 (Homo sapiens, UniProt Q9Y3R4); assay: Time-dependent inactivation of human Neu2; assay type: biochemical; conditions: 1 mM inactivator, 27° C., pH 5.6
Method: All experiments were carried out in a 100 mM Na2HPO4/50 mM Citric acid buffer, pH 5.6. […] The data were analyzed using the program GraFit 4.0 (Erithacus software) (R. Leatherbarrow, Erithacus Software Ltd., 4th Edition, Staines, UK, (1990)). […] Residual enzyme activity was determined at appropriate time intervals by the addition of an aliquot of the inactivation mixture to an assay buffer solution containing 8 mM 4-trifluoromethylumbelliferyl sialic acid (CF3MUSA). The initial linear increase in absorbance at 400 nm was used as a measure of the enzyme activity. These initial rates at each time point were plotted as a function of time to obtain time-dependent exponential decay curves from which ki obs could be obtained using the equation: (rate)t=(rate)t=0e^([…])+offset IC50 Enzyme Inhibition Assays

[5] = biological target: Hong Kong H3N2 (A/HongKong/01/68) neuraminidase (Influenza A virus, UniProt Q91MA2); assay: biochemical
[6] = mouse, in vivo
in vivo = conditions: Balb/c, mouse, 1 mg/kg
A/Fukui H3N2 wt NA = A/Fukui H3N2 wt NA (Influenza A virus, UniProt A0A0F6NYK2); assay type: biochemical; conditions: read-out: IC50 in the enzyme inhibition assay, A/Fukui H3N2
[7] = biological target: B/Florida wt (B/Florida/4/2006) NA (Influenza B virus, UniProt J7JZT1); assay type: biochemical
[8] = biological target: sH1N1/01 wt (A/Mississippi/3/01 H1N1) NA (Influenza A virus, UniProt Q3M0T6); assay type: biochemical
[9] = biological target: Sol Isl sH1N1 wt (A/Solomon Islands/3/2006) NA (Influenza A virus, UniProt B4URD9); assay type: biochemical
[10] = read-out: IC50 in the enzyme inhibition assay, B/Perth

Chain of Human Neu2 (Q9Y3R4 whole entry): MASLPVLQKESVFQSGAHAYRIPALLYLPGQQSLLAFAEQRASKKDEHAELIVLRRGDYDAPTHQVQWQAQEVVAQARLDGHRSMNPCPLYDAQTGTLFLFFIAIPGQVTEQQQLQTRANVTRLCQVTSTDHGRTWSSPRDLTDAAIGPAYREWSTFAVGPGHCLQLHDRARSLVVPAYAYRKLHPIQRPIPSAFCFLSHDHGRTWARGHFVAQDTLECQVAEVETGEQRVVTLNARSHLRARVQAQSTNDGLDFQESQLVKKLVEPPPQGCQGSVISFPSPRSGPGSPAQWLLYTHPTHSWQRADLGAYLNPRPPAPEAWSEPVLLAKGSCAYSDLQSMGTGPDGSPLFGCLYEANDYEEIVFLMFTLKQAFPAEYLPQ

Row | Molecule | Ki [1] [nM] | khyd [1] | t1/2 (inac) [1] | t1/2 (reac) [1] | IC50 (B/Perth (B/Perth/211/01); Influenza B virus, MDCK) [nM] | IC50 [2, 10] [nM] | IC50 (A/Fukui H3N2; Influenza A virus, H3N2, MDCK) [nM] | khyd [3] | t1/2 (inac) [3] | t1/2 (reac) [3] | IC50 ([4]; Influenza A virus, H1N1, MDCK) [nM] | Ki [5] [nM] | other results
1 | CC(=O)NC1C(N)C(F)C(F)(C(=O)O)OC1[C@H](O)[C@H](O)CO (stereo in doubt) [FeqAmDFSA, 5-Acetamido-2,4,5-trideoxy-4-amino-2α, 3β-difluoro-α-D-erythro-L-gluco-nonulo-pyranosonate] | 370 | 0.0027 0.0059 0.0150 0.0140 0.0045 min^−1 | 0.9 0.2 0.4 0.8 — min | 256 117 46 49 153 min | 10 to 100 | 5.4 | 1000 | 0.0027 0.0059 0.0150 0.0140 0.0045 min^−1 | 0.9 0.2 0.4 0.8 — min | 256 117 46 49 153 min | 100 | – | –
2 | CC(=O)NC1C(NC(=N)N)C(F)C(F)(C(=O)O)OC1[C@H](O)[C@H](O)CO (stereo in doubt) [FeqGuDFSA, 5-Acetamido-2,4,5-trideoxy-2α, 3β-difluoro-4-guanidino-α-D-erythro-L-gluco-nonulopyranosonate] | 100 | 0.0005 0.0015 0.001 0.0019 0.0005 min^−1 | 0.3 0.5 0.9 0.5 0.8 min | 1380 460 690 363 1380 min | 1 | 4.5 | 10 | 0.0005 0.0015 0.001 0.0019 0.0005 min^−1 | 0.3 0.5 0.9 0.5 0.8 min | 1380 460 690 363 1380 min | 1 | 150 | inactivation of Neu2 (Human Neu2): occurred slowly; IC50 ([2]; read-out: IC50 B/Perth wt): 4.5 nM
3 | CC(=O)N[C@H]1C([C@H](O)[C@H](O)CO)O[C@@](F)(C(=O)O)C(F)[C@H]1O (stereo partly drawn) [DFSA, 5-Acetamido-5-deoxy-3-fluoro-D-erythro-β-L-manno-2-nonulopyranosonic acid fluoride] | – | – | – | – | 1000 | 70 | 100000 | – | – | – | 1000 | – | –
4 | CC(=O)N[C@@H]1C(N)C(F)[C@](F)(C(=O)O)OC1[C@H](O)[C@H](O)CO (some centres unmarked) [FaxAmDFSA] | 4280 | 0.0001 0.0002 0.0001 0.0003 <0.0001 min^−1 | 2.1 2.5 1.7 4.0 20.8 min | 6900 3450 6900 2300 >6900 min | 100 | 210 | 1000 | 0.0001 0.0002 0.0001 0.0003 <0.0001 min^−1 | 2.1 2.5 1.7 4.0 20.8 min | 6900 3450 6900 2300 >6900 min | 100 | 240 | –
5 | CC(=O)N[C@@H]1C(NC(=N)N)C(F)[C@](F)(C(=O)O)OC1[C@H](O)[C@H](O)CO (some centres unmarked) [FaxGuDFSA] | 350 | <0.0001 <0.0001 <0.0001 <0.0001 <0.000l min^−1 | 7.4 9.2 20.9 6.8 20.2 min | >6900 >6900 >6900 >6900 >6900 min | 10 to 100 | 54 | 100 | <0.0001 <0.0001 <0.0001 <0.0001 <0.000l min^−1 | 7.4 9.2 20.9 6.8 20.2 min | >6900 >6900 >6900 >6900 >6900 min | 10 | 70 | inactivation of Neu2 (Human Neu2): occurred slowly; IC50 ([2]; read-out: IC50 B/Perth wt): 54 nM; plasma half-life after intranasal administration vs IV injection [6]: significantly longer; bioavailability (in vivo): 92%
6 | Oseltamivir | – | – | – | – | – | – | – | – | – | – | – | – | IC50 (A/Fukui H3N2 wt NA): 1.7 nM; IC50 [7]: 22.6 nM
7 | Zanamivir | – | – | – | – | – | – | – | – | – | – | – | – | IC50 ([8]; read-out: IC50 in the enzyme inhibition assay, A/Mississippi H1N1): 1.9 nM; IC50 ([8]; read-out: IC50 sH1N1/01 wt): 1.9 nM; IC50 (B/Perth (B/Perth/211/01)): 10 nM; IC50 [9]: 2.2 nM; IC50 (A/Fukui H3N2): 100 nM; IC50 [4]: ≤ 1 nM
